Here are results for seven molecules from PubChem BioAssay (NCI).

Holding throughout (assay): NCI anticancer screen, dose series, 48 h
For test [1], the system named is NCI/ADR-RES ovarian.
Test [2] relates to BT-549 breast.
In test [3] the test system is RXF 393 renal.
In test [4] the test system is MALME-3M melanoma.
The test system of test [5] is TK-10 renal.
In test [6] the test system is HL-60(TB) leukemia.
Test [7] concerns HCT-15 colon.
The subject of test [8] is SF-539 CNS.
Test [9] deals with HCT-116 colon.
For test [10], the system named is MCF7 breast.
The subject of test [11] is OVCAR-3 ovarian.
In test [12] the test system is NCI-H226 lung.
The test system of test [13] is K-562 leukemia.
Test [14] has as its system A498 renal.
Test [15] concerns UACC-257 melanoma.
In test [16] the test system is HS 578T breast.
The test system of test [17] is NCI-H522 lung.
Test [18] concerns EKVX NSCLC.
Test [19] concerns DLD-1 colon.
For test [20], the system named is DMS 114 small cell lung.

Structures are written as SMILES.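 Five concentrations, 48 hours, 96-well plates. TGI: total growth inhibition.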

With `CCOC(=O)C1=C(C)NC(=O)N([N+](=O)[O-])C1c1ccccc1C(F)(F)F` (configuration not stated), the TGI in test [1], in [2], in test [3], in [4], in test [5] and in test [6] was above 100 µM each time. The TGI in test [7] was above 100 µM; in [8], 71.9 µM; in [9], above 100 µM; in [10], above 100 µM; in test [11], above 100 µM; in [12], above 100 µM. The TGI in test [13], in [14], in test [15] and in [16] was above 100 µM throughout.
Regarding `Cc1cc(C)nc(NS(=O)(=O)c2ccc(Nc3c4ccccc4nc4c(C(=O)NCCO)cccc34)cc2)n1`, the TGI in test [1] is above 100 µM; in [2], 34 µM; in test [17], 30 µM; in test [4] it was 28.7 µM; in test [6], above 100 µM; in test [7] it was 46 µM. Moreover, the TGI in test [18] is above 100 µM; in test [10], 42.8 µM; in test [11] it was above 100 µM; in [13], above 100 µM; in [14] it was above 100 µM; in [16] it was above 100 µM.
With `CCOC(=O)c1csc(NC(=O)CCCC#N)n1`, the TGI in test [1], in [3], in [5], in test [6], in test [7] and in test [8] was above 100 µM in each case. Also, the TGI in [10], in test [11], in [12], in test [13], in test [14] and in [15] was above 100 µM throughout. The same molecule came in with a TGI in test [16] above 100 µM.
In the case of `c1ccc([P+](Cc2csnn2)(c2ccccc2)c2ccccc2)cc1`, the TGI in test [3], in test [17], in test [4], in test [5], in [6] and in test [19] was above 100 µM in each case. Besides, the TGI in test [7], in test [20], in test [8], in test [9], in test [18] and in [11] was above 100 µM each time. The TGI in test [12], in test [14] and in [15] was above 100 µM each time.
As to `COc1ccc(CN2C(=O)C(=O)N(C)C2=O)c2ccccc12`, the TGI in test [1], in test [3], in test [17], in [4], in [5] and in test [6] was above 10 µM throughout. Besides, the TGI in test [7], in test [8], in test [9], in test [18], in test [10] and in [11] was above 10 µM throughout. The TGI in [12], in test [13], in test [14] and in test [16] was above 10 µM in each case.
With `CCc1cc(=O)n(/C(C)=C/c2ccccc2)n1C`, the TGI in [1], in [2], in test [3], in [5], in test [8] and in test [9] was above 100 µM each time. The TGI in test [18], in [10], in test [11], in test [12], in [13] and in [15] was above 100 µM each time. The same molecule displayed a TGI in test [16] above 100 µM.
As for `COc1ccc(/C(C)=N/NC(=S)N(C)C)c(O)c1`, the TGI in test [2] was 66.6 µM; in test [17], above 100 µM; in test [9] it was above 100 µM; in [18], above 100 µM; in test [11], above 100 µM; in test [15], 77.7 µM. For the same molecule, the TGI in [16] is above 100 µM.
